Data taken from patent publication US4190642A, “Ocular therapeutic system for dispensing a medication formulation” (Alza Corporation, priority 1979, dated 1980).
Where a name gives a salt, the structure may show the parent alone. Read-outs that look alike come from different tables or passages of the source.

Key:
solubility in water = experiment: solubility in water
Source text: (§1) System 10 houses in depot 14 from about 1 to 40 weight percent of pilocarpine solute and from 1 to 25 weight percent of epinephrine solute, with the remaining weight percent of system 10 polymer 12. […] Generally, the pilocarpine solute and the epinephrine solute will have a particle size of about 0.1 to 100 microns, and a presently preferred particle size of about 0.5 to 20 microns. The osmotic delivery device consisting of sole drug solute of a specific particle size dispersed in a polymer is the invention of Michaels and Guillod as disclosed and claimed in copending U.S. Patent Application Ser. No. 855,605, filed on Nov. 29, 1977. This application and the copending application are both assigned to the Alza Corporation of Palo Alto, California.
Next, the contents of the bowl are removed, cut into 3 mm ×3 mm pieces with a multi-blade strip die and the strips fed to the hopper of an extruder. The pieces have a residence time of 5 minutes in the extruder with the screw of the extruder rotating at 20 rpm. A film is extruded through a 12 mil opening at the end of the extruder and punched into 13.5×5.8 mm inserts.

[1] = osmotic pressure (vapor pressure osmometer); format: physicochemical
Source text: as §1, with “The osmotic delivery device consisting of sole drug solute of a specific particle size dispersed in a polymer is the invention of Michaels and Guillod as disclosed and claimed in copending U.S. Patent Application Ser. No. 855,605, filed on Nov. 29, 1977.” left out
The osmotic pressure, ATM, of the above solutes can be measured in a commercially available osmometer that measures the vapor pressure difference between pure water and the solution containing a solute to be analyzed, and according to standard thermodynamic principles, the vapor pressure ratio is converted into osmotic pressure difference.

SMILES	solubility (solubility in water; water, solubility in water, 37° C.) [mg/mL]	solubility (solubility in water; water, solubility, water solution) [mg/mL]	osmotic pressure [1] [atmospheres]	osmotic pressure ([1]; Example 5) [ATM]	solubility (solubility in water; water solution, hydrochloride)	osmotic pressure ([1]; hydrochloride) [atmospheres]	solubility (solubility in water; water)	solubility (solubility in water; water, solubility in water) [mg/mL]
CNC[C@H](O)c1ccc(O)c(O)c1 [epinephrine bitartrate]	670	670	78.5	78.5				
CNC[C@H](O)c1ccc(O)c(O)c1 [epinephrine hydrochloride]					80 grams in 100 ml of water solution	185		
CC[C@@H]1C(=O)OC[C@@H]1Cc1cncn1C [pilocarpine hydrochloride]						300	80 grams in 100 ml of water solution	
CC[C@@H]1C(=O)OC[C@@H]1Cc1cncn1C [pilocarpine nitrate]			37	37			27 grams in 100 ml of water solution	270
